Measured values reported in the NIST ThermoML archive (doi:10.1016/j.jct.2010.06.008).

Assay: xn = mol fraction of the nth substance listed
Conditions: 101 kPa, Liquid; for speed of sound: Sing-around technique in a fixed-path interferometer; for mass density: Vibrating tube method

CC(C)(C)Cl [2-chloro-2-methylpropane] + CCCCCCC
Conditions	mass density, 283.15 K [kg/m3]	mass density, 298.15 K [kg/m3]	mass density, 313.15 K [kg/m3]	speed of sound, 283.15 K [m/s]	speed of sound, 298.15 K [m/s]	speed of sound, 313.15 K [m/s]
x2 = 0	855.249	837.096	818.536	1046.9	983.25	919.41
x2 = 0.0519	843.365	825.671	807.559	1053	989.06	925.62
x2 = 0.1021	832.352	815.034	797.321	1059	995.16	931.82
x2 = 0.2015	811.803	795.208	778.248	1071.6	1007.9	944.63
x2 = 0.3006	792.846	776.886	760.618	1085.1	1021.5	957.98
x2 = 0.3997	775.339	759.908	744.157	1099.1	1035.7	972.04
x2 = 0.5027	758.514	743.587	728.394	1114.5	1051.1	987.29
x2 = 0.6011	743.606	729.156	714.479	1129.7	1066	1002.2
x2 = 0.7014	729.346	715.392	701.195	1145.5	1081.5	1017.8
x2 = 0.8007	716.295	702.832	689.124	1161.5	1097.1	1033.3
x2 = 0.8966	704.437	691.409	678.136	1177.4	1113.2	1049.5
x2 = 0.9518	697.935	685.122	672.064	1187	1122.5	1058.7
